Values quoted from earlier work as cited in PubChem BioAssay AID1259409 (Chemical Carcinogenesis Research Information System (CCRIS), 2018).

Test system: rodent chemically induced tumor inhibition, incidence and multiplicity
Experiment: CCRIS tumor inhibitor studies

SMILES: COc1ccc2c(c1)c(CC(=O)O)c(C)n2C(=O)c1ccc(Cl)cc1
- tumour outcome (control, treated, inhibition, significance) (Carcinogen: 1,2-DIMETHYLHYDRAZINE DIHYDROCHLORIDE, 306-37-6, Dose [Inhibitor]: 20 MG/L TAP WATER DAILY FOR 32 WK STARTING SIMULTANEOUSLY WITH CARCINOGEN TREATMENT (STUDY DURATION: 32 WK), Route [Inhibitor]: ORAL, Species: RAT, Strain/Sex: SPRAGUE-DAWLEY/MALE, Target Tissue: Type of Lesion: LARGE INTESTINE: TUMOR, Dose [Carcinogen]: 20 MG/KG BW 1/WK FOR 20 WK, Promoter: NONE USED): 88%, 56%, 36%, p<0.005
- tumour outcome (control, treated, inhibition, significance) (Carcinogen: 1,2-DIMETHYLHYDRAZINE DIHYDROCHLORIDE, 306-37-6, Dose [Inhibitor]: 20 MG/L TAP WATER DAILY FOR 32 WK STARTING SIMULTANEOUSLY WITH CARCINOGEN TREATMENT (STUDY DURATION: 32 WK), Route [Inhibitor]: ORAL, Species: RAT, Strain/Sex: SPRAGUE-DAWLEY/MALE, Target Tissue: Type of Lesion: SMALL INTESTINE: TUMOR, Dose [Carcinogen]: 20 MG/KG BW 1/WK FOR 20 WK, Promoter: NONE USED): 46%, 31%, 33%, not significant
- tumour outcome (control, treated, inhibition, significance) (Carcinogen: 1,2-DIMETHYLHYDRAZINE, 540-73-8, Dose [Inhibitor]: 20 MG/L IN DRINKING WATER DAILY FOR 15 WK STARTING 34 D AFTER CARCINOGEN ADMINISTRATION (STUDY DURATION: 20 WK), Route [Inhibitor]: ORAL, Species: RAT, Strain/Sex: SPRAGUE-DAWLEY/MALE, Target Tissue: Type of Lesion: INTESTINE: TUMOR, Dose [Carcinogen]: 30 MG/KG BW ONCE, Promoter: NONE USED): 9/10 (90%), 2/9 (22%), 76%, p 0.0019
- tumour outcome (control, treated, inhibition, significance) (Carcinogen: 1-HYDROXYANTHRAQUINONE, 129-43-1, Dose [Inhibitor]: 0, 16 PMM IN DRINKING WATER FOR 48 WK (STUDY DURATION: 48 WK), Route [Inhibitor]: ORAL, Species: RAT, Strain/Sex: ACI/MALE, Target Tissue: Type of Lesion: LARGE BOWEL: ADENOCARCINOMA, Dose [Carcinogen]: 1.5% IN DIET FOR 48 WK, Promoter: NONE USED): 7/27 (26%), 0/14 (0%), 100%), p= 0.03
- tumour outcome (control, treated, inhibition, significance) (Carcinogen: 1-HYDROXYANTHRAQUINONE, 129-43-1, Dose [Inhibitor]: 0, 16 PPM IN DRINKING WATER FOR 48 WK (STUDY DURATION: 48 WK), Route [Inhibitor]: ORAL, Species: RAT, Strain/Sex: ACI/MALE, Target Tissue: Type of Lesion: CECUM: ADENOCARCINOMA, Dose [Carcinogen]: 1.5% IN DIET FOR 48 WK, Promoter: NONE USED): 3/27 (11%), 0/14 (0%), 100%, not calculated
- tumour outcome (control, treated, inhibition, significance) (Carcinogen: 1-HYDROXYANTHRAQUINONE, 129-43-1, Dose [Inhibitor]: 0, 16 PPM IN DRINKING WATER FOR 48 WK (STUDY DURATION: 48 WK), Route [Inhibitor]: ORAL, Species: RAT, Strain/Sex: ACI/MALE, Target Tissue: Type of Lesion: CECUM: ADENOMA, Dose [Carcinogen]: 1.5% IN DIET FOR 48 WK, Promoter: NONE USED): 2/27 (7%), 0/14 (0%), 100%, not calculated
- tumour outcome (control, treated, inhibition, significance) (Carcinogen: 1-HYDROXYANTHRAQUINONE, 129-43-1, Dose [Inhibitor]: 0, 16 PPM IN DRINKING WATER FOR 48 WK (STUDY DURATION: 48 WK), Route [Inhibitor]: ORAL, Species: RAT, Strain/Sex: ACI/MALE, Target Tissue: Type of Lesion: COLON: ADENOCARCINOMA, Dose [Carcinogen]: 1.5% IN DIET FOR 48 WK, Promoter: NONE USED): 5/27 (19%), 0/14 (0%), 100%, not calculated
- tumour outcome (control, treated, inhibition, significance) (Carcinogen: 1-HYDROXYANTHRAQUINONE, 129-43-1, Dose [Inhibitor]: 0, 16 PPM IN DRINKING WATER FOR 48 WK (STUDY DURATION: 48 WK), Route [Inhibitor]: ORAL, Species: RAT, Strain/Sex: ACI/MALE, Target Tissue: Type of Lesion: COLON: ADENOMA OR ADENOCARCINOMA, Dose [Carcinogen]: 1.5% IN DIET FOR 48 WK, Promoter: NONE USED): 9/27 (33%), 0/14 (0%), 100%, p<0.01
- tumour outcome (control, treated, inhibition, significance) (Carcinogen: 1-HYDROXYANTHRAQUINONE, 129-43-1, Dose [Inhibitor]: 0, 16 PPM IN DRINKING WATER FOR 48 WK (STUDY DURATION: 48 WK), Route [Inhibitor]: ORAL, Species: RAT, Strain/Sex: ACI/MALE, Target Tissue: Type of Lesion: COLON: ADENOMA, Dose [Carcinogen]: 1.5% IN DIET FOR 48 WK, Promoter: NONE USED): 4/27 (15%), 0/14 (0%), 100%, not calculated
- outcome (Carcinogen: 1-HYDROXYANTHRAQUINONE, 129-43-1, Dose [Inhibitor]: 0, 16 PPM IN DRINKING WATER FOR 48 WK (STUDY DURATION: 48 WK), Route [Inhibitor]: ORAL, Species: RAT, Strain/Sex: ACI/MALE, Target Tissue: Type of Lesion: FORESTOMACH: PAPILLOMA, Dose [Carcinogen]: 1.5% IN DIET FOR 48 WK, Promoter: NONE USED): 14/27 (52%), 2/14 (14%), p= 0.01
- tumour outcome (control, treated, inhibition, significance) (Carcinogen: 1-HYDROXYANTHRAQUINONE, 129-43-1, Dose [Inhibitor]: 0, 16 PPM IN DRINKING WATER FOR 48 WK (STUDY DURATION: 48 WK), Route [Inhibitor]: ORAL, Species: RAT, Strain/Sex: ACI/MALE, Target Tissue: Type of Lesion: FORESTOMACH: TUMOR, Dose [Carcinogen]: 1.5% IN DIET FOR 48 WK, Promoter: NONE USED): 14/27 (52%), 2/14 (14%), 73%, p<0.01
- tumour outcome (control, treated, inhibition, significance) (Carcinogen: 1-HYDROXYANTHRAQUINONE, 129-43-1, Dose [Inhibitor]: 0, 16 PPM IN DRINKING WATER FOR 48 WK (STUDY DURATION: 48 WK), Route [Inhibitor]: ORAL, Species: RAT, Strain/Sex: ACI/MALE, Target Tissue: Type of Lesion: LARGE BOWEL: ADENOMA, Dose [Carcinogen]: 1.5% IN DIET FOR 48 WK, Promoter: NONE USED): 5/27 (19%), 0/14 (0%), 100%, not calculated
- tumour outcome (control, treated, inhibition, significance) (Carcinogen: 1-HYDROXYANTHRAQUINONE, 129-43-1, Dose [Inhibitor]: 0, 16 PPM IN DRINKING WATER FOR 48 WK (STUDY DURATION: 48 WK), Route [Inhibitor]: ORAL, Species: RAT, Strain/Sex: ACI/MALE, Target Tissue: Type of Lesion: LARGE BOWEL: TUMOR, Dose [Carcinogen]: 1.5% IN DIET FOR 48 WK, Promoter: NONE USED): 12/27 (44%), 0/14 (0%), 100%, not calculated
- tumour outcome (control, treated, inhibition, significance) (Carcinogen: 1-HYDROXYANTHRAQUINONE, 129-43-1, Dose [Inhibitor]: 0, 16 PPM IN DRINKING WATER FOR 48 WK (STUDY DURATION: 48 WK), Route [Inhibitor]: ORAL, Species: RAT, Strain/Sex: ACI/MALE, Target Tissue: Type of Lesion: LIVER: NEOPLASTIC NODULE, Dose [Carcinogen]: 1.5% IN DIET FOR 48 WK, Promoter: NONE USED): 1/27 (4%), 0/14 (0%), 100%, not calculated
- tumour outcome (control, treated, inhibition, significance) (Carcinogen: 1-HYDROXYANTHRAQUINONE, 129-43-1, Dose [Inhibitor]: 0, 16 PPM IN DRINKING WATER FOR 48 WK (STUDY DURATION: 48 WK), Route [Inhibitor]: ORAL, Species: RAT, Strain/Sex: ACI/MALE, Target Tissue: Type of Lesion: LIVER: TUMOR, Dose [Carcinogen]: 1.5% IN DIET FOR 48 WK, Promoter: NONE USED): 1/27 (4%), 0/14 (0%), 100%, not calculated
- tumour outcome (control, treated, inhibition, significance) (Carcinogen: 2-ACETYLAMINOFLUORENE, 53-96-3, Dose [Inhibitor]: 0, 10 PPM IN DRINKING WATER FOR 18 WK BEGINNING 1 WK PRIOR TO CARCINOGEN TREATMENT (STUDY DURATION: 36 WK), Route [Inhibitor]: ORAL, Species: RAT, Strain/Sex: ACI/N/MALE, Target Tissue: Type of Lesion: LIVER: TUMOR, Dose [Carcinogen]: 200 PPM IN DIET FOR 16 WK, Promoter: NONE USED): 10/10 (100%), 1/10 (10%), 90%, p=0.00006
- outcome (Carcinogen: 4-HYDROXYBUTYL(BUTYL)NITROSAMINE [3817-11-6], Dose [Inhibitor]: 20 MG/KG IN DIET 1 WK AFTER CARCINOGEN (STUDY DURATION: 32 WK), Route [Inhibitor]: DIET, Species: MOUSE, Strain/Sex: B6D2F1/MALE, Target Tissue: Type of Lesion: BLADDER: CARCINOMA, Dose [Carcinogen]: 7.5 MG/WK FOR 12 WK): 32, 6, 81%
- outcome (Carcinogen: 4-HYDROXYBUTYL(BUTYL)NITROSAMINE [3817-11-6], Dose [Inhibitor]: 20 MG/KG IN DIET 1 WK AFTER LAST CARCINOGEN DOSE (STUDY DURATION: 61 WK), Route [Inhibitor]: DIET, Species: MOUSE, Strain/Sex: B6D2F1/MALE, Target Tissue: Type of Lesion: BLADDER: CARCINOMA, Dose [Carcinogen]: 7.5 MG/WK FOR 12 WK): 66, 26, 61%
- outcome (Carcinogen: 4-HYDROXYBUTYL(BUTYL)NITROSAMINE [3817-11-6], Dose [Inhibitor]: 20 MG/KG IN DIET 1 WK AFTER LAST CARCINOGEN DOSE FOR 12 WK (STUDY DURATION: 42 WK), Route [Inhibitor]: DIET, Species: MOUSE, Strain/Sex: B6D2F1/MALE, Target Tissue: Type of Lesion: BLADDER: CARCINOMA, Dose [Carcinogen]: 7.5 MG/WK FOR 12 WK): 31, 16, 48%
